Literature values, collected in patent US20080032891A1, “DEFOLIANT COMPOSITION AND METHOD” (ARYSTA L[…] AMERICA CORPORATION, priority 2006, published 2008).

Structure (SMILES) | solubility in water
O=C(Nc1ccccc1)Nc1cnns1 [Thidiazuron, 1-phenyl-3-(1,2,3-thiadiazol-5-yl)-urea] | insoluble in water
CN(C)C(=O)Nc1ccc(Cl)c(Cl)c1 [diuron, 3-(3,4-dichlorophenyl)-1,1-dimethylurea] | insoluble in water
